Assay results from ChEMBL document CHEMBL1201862, “PubChem BioAssay data set” (2004).
Calls of active or inactive are those of the source.

Experiments:
[1] = target: Luciferin 4-monooxygenase (Photinus pyralis, UniProt P08659); assay: inhibition of purified Photinus pyralis luciferase – biochemical, luminescence, dose response (AID 1891)
[2] = Luminescence Cell-Based Dose Confirmation HTS to Identify Inhibitors of Platelet Dense Granule Release. [Related pubchem assays: 1663 (Primary HTS), 1678 (Summary of Project)]; type: functional
Protein RecA = target: T1, Protein RecA (Mycobacterium tuberculosis, UniProt P9WHJ3); assay: Fluorescence Cell-Free Homogeneous Dose Retest to Identify Inhibitors of RecA-Intein Splicing Activity. [Related pubchem assays (depositor defined):AID2097, AID2223, AID489010, AID492950]; type: functional
T1 sequence (P9WHJ3 whole entry): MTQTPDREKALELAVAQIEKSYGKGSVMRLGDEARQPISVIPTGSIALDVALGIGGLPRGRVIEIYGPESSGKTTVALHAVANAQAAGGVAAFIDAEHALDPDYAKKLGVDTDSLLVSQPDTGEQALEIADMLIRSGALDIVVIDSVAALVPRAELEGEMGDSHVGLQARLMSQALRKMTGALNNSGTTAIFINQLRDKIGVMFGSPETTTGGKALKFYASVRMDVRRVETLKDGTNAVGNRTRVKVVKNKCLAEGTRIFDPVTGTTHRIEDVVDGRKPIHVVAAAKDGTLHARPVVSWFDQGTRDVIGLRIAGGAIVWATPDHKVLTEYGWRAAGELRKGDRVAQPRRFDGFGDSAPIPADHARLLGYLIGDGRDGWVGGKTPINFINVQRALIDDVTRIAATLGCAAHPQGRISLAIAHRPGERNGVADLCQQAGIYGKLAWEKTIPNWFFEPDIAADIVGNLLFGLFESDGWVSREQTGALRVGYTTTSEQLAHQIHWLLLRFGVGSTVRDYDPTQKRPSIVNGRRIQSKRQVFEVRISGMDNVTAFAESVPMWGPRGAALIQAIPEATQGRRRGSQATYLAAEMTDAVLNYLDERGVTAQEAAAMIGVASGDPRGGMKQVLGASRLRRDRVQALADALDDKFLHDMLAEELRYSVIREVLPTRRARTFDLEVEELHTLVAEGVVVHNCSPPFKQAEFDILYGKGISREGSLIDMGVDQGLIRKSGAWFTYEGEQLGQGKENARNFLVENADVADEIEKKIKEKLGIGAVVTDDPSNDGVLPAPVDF

[3] = target: T2, Replicative DNA helicase DnaB (Mycobacterium tuberculosis, UniProt P9WMR3); assay: DnaB intein splicing inhibitors, dose response, biochemical, cell-free fluorescence (AID 449749); type: functional
T2 sequence (P9WMR3 whole entry): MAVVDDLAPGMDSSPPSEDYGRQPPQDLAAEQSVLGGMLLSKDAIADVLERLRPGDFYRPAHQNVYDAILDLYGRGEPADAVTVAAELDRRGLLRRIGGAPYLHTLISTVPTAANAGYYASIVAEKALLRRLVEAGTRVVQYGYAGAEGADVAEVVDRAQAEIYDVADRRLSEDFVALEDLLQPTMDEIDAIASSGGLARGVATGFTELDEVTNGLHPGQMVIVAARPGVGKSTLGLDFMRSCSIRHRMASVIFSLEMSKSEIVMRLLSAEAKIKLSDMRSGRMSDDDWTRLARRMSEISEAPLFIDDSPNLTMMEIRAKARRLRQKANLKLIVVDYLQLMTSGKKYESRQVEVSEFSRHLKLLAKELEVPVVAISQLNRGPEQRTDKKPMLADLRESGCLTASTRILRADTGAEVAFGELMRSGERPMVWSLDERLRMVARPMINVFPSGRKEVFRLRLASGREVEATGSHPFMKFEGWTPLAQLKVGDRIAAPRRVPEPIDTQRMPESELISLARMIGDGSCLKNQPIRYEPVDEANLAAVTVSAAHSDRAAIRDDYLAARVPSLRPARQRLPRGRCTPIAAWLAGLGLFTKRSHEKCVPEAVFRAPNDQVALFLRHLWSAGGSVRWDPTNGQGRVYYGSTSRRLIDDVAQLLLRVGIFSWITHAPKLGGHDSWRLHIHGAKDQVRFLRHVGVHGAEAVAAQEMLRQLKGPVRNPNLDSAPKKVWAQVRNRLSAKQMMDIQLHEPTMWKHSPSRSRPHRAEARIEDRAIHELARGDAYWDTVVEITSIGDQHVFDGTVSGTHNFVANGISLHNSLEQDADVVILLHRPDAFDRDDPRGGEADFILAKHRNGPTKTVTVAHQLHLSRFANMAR

[4] = Trypanosoma cruzi growth suppression in host cells – NIH3T3 host cells, beta-gal luminescence, confirmation (AID 2044); type: functional, cell-based;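 note: intracellular parasites grown in NIH/3T3 mouse fibroblasts as host cells; luminescent beta-galactosidase reporter signal from transgenic T. cruzi replicating inside host cells; inhibitors lower the luminescence signal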
[5] = NIH3T3 cell viability loss – ATP luminescence, mouse fibroblasts, counter-screen, dose response (AID 2010); type: functional, cell-based;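 note: cells exposed to compound for about 90 hours before reading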
[6] = Luminescence Cell-Based Dose Retest to Confirm Inhibitors of Cancer Stem Cells. [Related pubchem assays (depositor defined):AID2717, AID2721]; type: functional; details: Homo sapiens
[7] = fluconazole-exposed Candida albicans growth modulators – fluorescence, retest, confirmation (AID 2467); type: functional, cell-based
[8] = NIH-3T3 fibroblast cytotoxicity, dose response, cytotoxicity control, cell-based, fluorescence, Alamar Blue, secondary assay (AID 2327); type: functional;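 note: NIH-3T3 mouse fibroblasts cultured with fluconazole at 8 µg/mL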
cells = type: functional
[9] = microbe, parasite or virus in culture; type: functional; details: Mycobacterium tuberculosis
[10] = viability of uninfected HEp-2 cells – cell-based, HTS, cytotoxicity control for RSV inhibitor project, dose response (AID 2410); type: functional; details: human respiratory syncytial virus
Cytochrome P450 2C19 = Cytochrome P450 2C19 (Homo sapiens, UniProt P33261); assay: Cytochrome panel assay with activity outcomes. Panel member name: p450-cyp2c19 Compounds with AC50 equal or less than 10 uM are considered active; type: functional; details: read-out: AC50
Sequence of Cytochrome P450 2C19 (P33261 whole entry): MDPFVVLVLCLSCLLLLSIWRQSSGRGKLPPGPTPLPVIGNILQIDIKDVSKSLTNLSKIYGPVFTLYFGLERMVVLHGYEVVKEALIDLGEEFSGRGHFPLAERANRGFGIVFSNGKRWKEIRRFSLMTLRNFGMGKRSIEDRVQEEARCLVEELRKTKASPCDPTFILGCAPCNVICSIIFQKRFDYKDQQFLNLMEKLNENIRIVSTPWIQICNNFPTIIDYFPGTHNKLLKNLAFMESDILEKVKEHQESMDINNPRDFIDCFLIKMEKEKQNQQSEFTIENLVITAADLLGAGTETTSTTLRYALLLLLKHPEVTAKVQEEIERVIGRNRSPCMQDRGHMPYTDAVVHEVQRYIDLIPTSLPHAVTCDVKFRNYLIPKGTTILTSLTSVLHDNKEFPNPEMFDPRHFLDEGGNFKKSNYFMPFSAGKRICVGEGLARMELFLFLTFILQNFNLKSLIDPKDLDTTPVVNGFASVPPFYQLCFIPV

Cytochrome P450 2C9 = Cytochrome P450 2C9 (Homo sapiens, UniProt P11712)
Sequence of Cytochrome P450 2C9 (P11712 whole entry): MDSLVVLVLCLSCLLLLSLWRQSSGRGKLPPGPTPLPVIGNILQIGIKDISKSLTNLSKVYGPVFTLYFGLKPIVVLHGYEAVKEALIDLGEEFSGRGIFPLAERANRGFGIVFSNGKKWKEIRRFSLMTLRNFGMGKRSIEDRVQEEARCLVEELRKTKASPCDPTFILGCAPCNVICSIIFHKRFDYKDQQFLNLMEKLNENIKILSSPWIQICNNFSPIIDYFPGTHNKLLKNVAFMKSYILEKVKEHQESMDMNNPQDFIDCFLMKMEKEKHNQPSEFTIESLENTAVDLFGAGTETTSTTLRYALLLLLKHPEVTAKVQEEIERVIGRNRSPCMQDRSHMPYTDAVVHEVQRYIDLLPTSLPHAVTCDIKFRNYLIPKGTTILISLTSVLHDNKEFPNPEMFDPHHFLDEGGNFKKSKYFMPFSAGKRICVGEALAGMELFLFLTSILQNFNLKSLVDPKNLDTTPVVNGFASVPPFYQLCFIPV

[11] = system: Streptococcus sp. 'group A'; assay: Streptococcus pyogenes SK(-)GAS viability under kanamycin – luminescence, BacTiterGlo, confirmation, counter-screen for streptokinase expression inhibitor project, dose response (AID 1900); type: functional, organism-based
Streptokinase A = target: T3, Streptokinase A (Streptococcus pyogenes serotype M1, UniProt P10520); assay: viability-normalized secreted streptokinase activity reduction – plasminogen activation absorbance, OD405, dose response (AID 1914); type: functional, Streptococcus pyogenes M1 GAS;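 note: secreted streptokinase activity via plasminogen activation per viability signal from cell pellet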
T3 sequence (P10520 whole entry): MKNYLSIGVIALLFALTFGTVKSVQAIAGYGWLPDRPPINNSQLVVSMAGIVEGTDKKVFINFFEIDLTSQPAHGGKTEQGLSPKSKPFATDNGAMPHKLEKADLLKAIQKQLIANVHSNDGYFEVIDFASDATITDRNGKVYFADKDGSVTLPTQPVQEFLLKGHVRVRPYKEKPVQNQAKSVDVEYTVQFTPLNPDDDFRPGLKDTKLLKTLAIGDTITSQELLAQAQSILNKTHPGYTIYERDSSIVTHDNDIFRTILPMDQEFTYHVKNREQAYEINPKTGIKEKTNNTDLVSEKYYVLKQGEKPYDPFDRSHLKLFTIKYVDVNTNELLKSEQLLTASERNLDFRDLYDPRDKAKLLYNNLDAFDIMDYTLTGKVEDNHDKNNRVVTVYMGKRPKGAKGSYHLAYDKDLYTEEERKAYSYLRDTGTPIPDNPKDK

Streptococcus = assay: GAS UMAA2166 growth inhibition – luminescence, BacTiterGlo, counter-screen for streptokinase expression inhibitor project, dose response (AID 1915); type: functional, organism-based;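 note: potency for reduction of bacterial viability or growth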
[12] = target: T4, Carboxy-terminal domain RNA polymerase II polypeptide A small phosphatase 1 (Homo sapiens, UniProt Q9GZU7); assay: CTDSP1 inhibitors, concentration-response, biochemical, absorbance readout, ultra-high-throughput screen actives (AID 540297); type: functional
T4 sequence (Q9GZU7 whole entry): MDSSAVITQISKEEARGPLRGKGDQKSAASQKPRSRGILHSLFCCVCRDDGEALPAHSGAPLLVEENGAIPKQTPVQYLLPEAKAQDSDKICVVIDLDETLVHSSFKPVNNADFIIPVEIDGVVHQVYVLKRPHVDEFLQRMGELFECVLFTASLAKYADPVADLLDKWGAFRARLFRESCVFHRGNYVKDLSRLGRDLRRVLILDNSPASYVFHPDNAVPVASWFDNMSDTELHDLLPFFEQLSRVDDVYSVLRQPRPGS

Paired box protein Pax-8 = Paired box protein Pax-8 (Homo sapiens, UniProt Q06710); assay: PAX8 transcriptional activity inhibition in RMG-I – RMG-I cells, luciferase, cherry-pick, dose response (AID 687027); type: functional, cell-based;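 note: luciferase reporter driven by Pax8 target thyroperoxidase promoter measured by SteadyGlo luminescence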
Sequence of Paired box protein Pax-8 (Q06710 whole entry): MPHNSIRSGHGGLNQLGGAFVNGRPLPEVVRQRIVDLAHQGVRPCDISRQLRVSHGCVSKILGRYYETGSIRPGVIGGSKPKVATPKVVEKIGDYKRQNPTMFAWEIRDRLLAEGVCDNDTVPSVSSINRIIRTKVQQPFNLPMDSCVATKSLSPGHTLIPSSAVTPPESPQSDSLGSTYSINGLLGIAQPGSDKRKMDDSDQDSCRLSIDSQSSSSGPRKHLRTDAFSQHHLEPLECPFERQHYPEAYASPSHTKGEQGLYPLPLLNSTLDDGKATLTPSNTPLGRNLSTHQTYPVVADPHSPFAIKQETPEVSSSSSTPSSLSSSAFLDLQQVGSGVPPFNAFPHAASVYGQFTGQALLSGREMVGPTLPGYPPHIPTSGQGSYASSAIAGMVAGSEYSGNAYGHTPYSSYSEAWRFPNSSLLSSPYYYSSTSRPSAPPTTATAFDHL

Sequence of Luciferin 4-monooxygenase (P08659 whole entry): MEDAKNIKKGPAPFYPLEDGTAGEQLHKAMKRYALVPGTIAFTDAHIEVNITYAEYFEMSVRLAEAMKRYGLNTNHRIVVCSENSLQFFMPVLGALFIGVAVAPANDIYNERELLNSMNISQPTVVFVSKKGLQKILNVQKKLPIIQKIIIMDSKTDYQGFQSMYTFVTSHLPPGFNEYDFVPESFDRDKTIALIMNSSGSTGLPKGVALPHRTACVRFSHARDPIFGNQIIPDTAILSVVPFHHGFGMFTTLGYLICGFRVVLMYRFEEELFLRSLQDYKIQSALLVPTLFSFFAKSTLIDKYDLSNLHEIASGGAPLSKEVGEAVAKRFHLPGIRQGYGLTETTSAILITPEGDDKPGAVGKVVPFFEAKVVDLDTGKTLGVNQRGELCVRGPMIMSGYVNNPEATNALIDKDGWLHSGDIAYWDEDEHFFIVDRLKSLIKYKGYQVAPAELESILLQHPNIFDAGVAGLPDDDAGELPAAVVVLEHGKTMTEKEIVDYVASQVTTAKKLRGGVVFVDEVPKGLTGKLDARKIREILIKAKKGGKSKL

SMILES: Nc1ccc(-c2nc3ccccc3o2)cc1
- EC50 [1]: 51.5 µM (active)
- EC50 [2]: > 112 µM (not active)

SMILES: Cn1c(-c2ccccc2)c(C(=O)CCl)c2ccccc21
- EC50 (Protein RecA): 3.04 µM (active)
- AC50 [3]: 6.94 µM (active)
- EC50 [4]: 0.998 µM (active)
- EC50 [5]: 2.44 µM (active)

SMILES: O=S(=O)(c1cccc(-c2nnc(SC(F)F)n2-c2ccccc2)c1)N1CCCCC1
- EC50 [1]: > 112 µM (not active)
- EC50 [2]: > 112 µM (not active)

SMILES: CCOc1cc(/C=C2/SC(=S)N(Cc3ccccc3)C2=O)ccc1O
- EC50 (Protein RecA): 3.96 µM (active)
- AC50 [6]: 1.42 µM (active)
- AC50 [3]: 38.9 µM (active)

SMILES: Cc1cccc(N2CCN(c3nc(C)cc(C)c3C#N)CC2C)c1 (stereo not given)
- EC50 [4]: 3.63 µM (active)
- EC50 [7]: > 38 µM (not active)
- EC50 [5]: > 60 µM (not active)
- EC50 [8]: 41.3 µM (active)

SMILES: CCOC(=O)c1ccc(COC(=O)c2ccc(-c3nnc(-c4ccccc4)o3)cc2)o1
- IC50 (cells): > 50 µM (active)
- EC50 [1]: 28.5 µM (active)
- EC50 [2]: 8.77 µM (active)

SMILES: CC1CCN(C(=S)NC(=O)c2cccs2)CC1
- CC50 [9]: > 40 µM (active)

SMILES: NCCCn1c(C(=O)c2ccc(Cl)cc2)c2ccc([N+](=O)[O-])cc2[n+]1[O-]
- CC50 [9]: 35.4 µM (active)

SMILES: COc1ccc(CCNC(=O)c2cc3c(=O)n4ccccc4nc3n(Cc3ccco3)c2=N)cc1OC
- EC50 [1]: > 112 µM (not active)
- EC50 [2]: 44 µM (active)

SMILES: Cc1nnc2n(Cc3ccccc3)c(=O)c3c4c(sc3n12)COC(C(C)C)C4 (stereo not given)
- CC50 [10]: 31.3 µM (active)
- EC50 [1]: > 112 µM (not active)
- EC50 [2]: > 112 µM (not active)

SMILES: CCOC(=O)c1cc(CC)sc1NC(=O)c1cc(OCC)c(OCC)c(OCC)c1
- AC50 (Cytochrome P450 2C19): 25.1 µM (inconclusive)
- AC50 (Cytochrome P450 2C9): 20 µM (inconclusive)
- CC50 [9]: > 40 µM (active)

SMILES: COC(=O)c1oc2ccc(Br)cc2c1-n1cccc1
- EC50 [1]: > 112 µM (not active)
- EC50 [2]: > 112 µM (not active)

SMILES: Cc1cc(-c2nnc(CCC(=O)NC(C)c3cccc4ccccc34)o2)no1 (stereo not given)
- EC50 [1]: > 112 µM (not active)
- EC50 [2]: > 112 µM (not active)

SMILES: Cc1cccc(C)c1OCC(=O)Nc1cccc(-c2nnc(-c3ccccc3)o2)c1
- CC50 [9]: 34.9 µM (active)

SMILES: Cc1cc(OC(C)C(=O)NCc2ccncc2)c2c3c(c(=O)oc2c1)CCC3 (stereo not given)
- EC50 [1]: > 112 µM (not active)
- EC50 [2]: > 112 µM (not active)

SMILES: O=C(/C=C/c1ccccc1)Nn1c(-c2cccs2)nc2ccccc2c1=O
- EC50 [7]: 0.102 µM (active)
- EC50 [8]: > 160 µM (inactive)

SMILES: Cc1cc(C=C2C(=O)NC(=S)NC2=O)c(C)n1C1CCCC1
- IC50 (cells): 10.4 µM (active)
- CC50 [9]: > 40 µM (active)

SMILES: O=C(CCCCCNc1nc(S)nc2ccccc12)N1CCN(c2ccccn2)CC1
- CC50 [9]: > 40 µM (active)

SMILES: CC(C)=CCOc1ccc([C@@H]2COc3c(ccc4c3C=CC(C)(C)O4)C2)c(O)c1
- AC50 [6]: 3.44 µM (active)
- EC50 [11]: 2.28 µM (active)
- EC50 (Streptokinase A): > 150 µM (not active)
- EC50 (Streptococcus): 2.25 µM (active)
- CC50 [9]: > 40 µM (active)

SMILES: COC(=O)c1sc(N)c(C(=O)OC)c1COC(=O)CNS(=O)(=O)c1ccc(C)cc1
- EC50 [1]: > 112 µM (not active)
- EC50 [2]: > 112 µM (not active)

SMILES: C=CCn1c(NC(=O)c2ccc(Br)o2)c(C(=O)OCC)sc1=S
- EC50 [7]: > 38 µM (not active)
- EC50 [8]: > 160 µM (inconclusive)

SMILES: O=C(Nc1cc(S(=O)(=O)N2CCCCC2)ccc1Cl)C1COc2ccccc2O1 (stereo not given)
- IC50 [12]: 46.4 µM (active)

SMILES: C[C@@H]1CN([C@@H](C)CO)C(=O)c2ccccc2-c2ccccc2CO[C@@H]1CN(C)Cc1ccc2c(c1)OCCN2C
- AC50 (Paired box protein Pax-8): 29.5 µM (active)

SMILES: C[C@H](CO)N1C[C@H](C)[C@@H](CN(C)Cc2ccc(Cl)c(Cl)c2)OCCCC[C@H](C)Oc2ccc(NC(=O)Nc3ccc(C(F)(F)F)cc3)cc2C1=O
- AC50 (Paired box protein Pax-8): 4.17 µM (active)

SMILES: Cc1ccc(C2=[N+]([O-])C3(CCCCC/C3=N\O)N(O)C2(C)C)o1 (stereo not given)
- EC50 [1]: > 112 µM (not active)
- EC50 [2]: > 112 µM (not active)

SMILES: O=C(Cc1ccccc1)N/N=C/c1ccc(OCC(=O)Nc2ccccc2)cc1
- IC50 [12]: 10.2 µM (active)
